Test results: US7862838B1, “Composition and regimen for the treatment of herpes simplex and herpes zoster primarily by eliminating their pathogenetic conditions and taking into account both pathogenesis and etiology” (priority 2009, dated 2011)

Columns and labels:
[1] = test system: herpes zoster; assay: Treatment of herpes zoster in patients, case report and general statement; format: in vivo; conditions: case 5, herpes zoster around right eye
Description: The average total period of treatment with the present invention is from about 2-4 days for herpes simplex and from about 3-7 days for herpes zoster. After the acute stage, crusts of the lesion form and fall off gradually, and then a red spot or spots remain for some more days. […] […] For quicker relief, the patient preferred to take the formula of the present invention along with acyclovir.

[2] = test system: herpes simplex; assay: Treatment and prevention of herpes simplex (lips, mouth) in patients, case reports and general statements; format: in vivo; conditions: large dosage (200-500 mg), applicant's experience
Procedure: The treatment regimen of the present invention comprises: Initially, administering to the patient 2 capsules (or tablets, the same hereinafter) of said formula orally every 2-4 hours. The dosage may be higher in severe cases, and may be adjusted by the prescribing health care provider. When symptoms are alleviated (see description below), usually after 1-2 days, administer 1 capsule of said formula every 4 hours until symptoms disappear. The average total period of treatment with the present invention is from about 2-4 days for herpes simplex and from about 3-7 days for herpes zoster. After the acute stage, crusts of the lesion form and fall off gradually, and then a red spot or spots remain for some more days. The formula of the present invention can be used for therapeutic prevention of herpes simplex: Whenever the patient feels a stinging and burning sensation on the potential site, or feels roughness on the tip of the tongue, they can ingest 1-2 capsules of the formula, and repeat every 2-4 hours if necessary. […] After several such preventive measures, recurrence of herpes simplex will be less and less likely, or latent for a sustained period. […] Patient stated that they had had recurrent maceration in the angles of the mouth since childhood. […]

CC(C)Cc1ccc(C(C)C(=O)O)cc1 (stereo not drawn) [Ibuprofen]
pain relief before treatment with the formula [1]: effective only for a short time

Nc1nc2c(ncn2COCCO)c(=O)[nH]1 [acyclovir]
pain relief before treatment with the formula [1]: got some relief

O=C1O[C@H]([C@@H](O)CO)C(O)=C1O [vitamin C]
effect on the course of herpes simplex [2]: made herpes simplex worse
